Laboratory results from the NIST ThermoML archive (doi:10.1021/je301347v).

Experiment: xn = mol fraction of the nth substance listed
Conditions: 101 kPa, Liquid, Voltage change across transformer (no electrode)

CCCC[n+]1ccccc1.F[B-](F)(F)F [1-butylpyridinium tetrafluoroborate] + CO
electrical conductivity [S/m]
Conditions | 293.15 K | 303.15 K | 313.15 K | 323.15 K
x1 = 0.0432 | 2.87 | 3.37 | 3.91 | 4.28
x1 = 0.0485 | 2.98 | 3.51 | 3.95 | 4.62
x1 = 0.0698 | 3.21 | 3.82 | 4.45 | 5.11
x1 = 0.0901 | 3.45 | 4.17 | 4.89 | 5.46
x1 = 0.1091 | 3.71 | 4.39 | 5.14 | 5.81
x1 = 0.1252 | 3.75 | 4.54 | 5.35 | 6.06
x1 = 0.142 | 3.82 | 4.61 | 5.45 | 6.12
x1 = 0.1629 | 3.79 | 4.59 | 5.49 | 6.19
x1 = 0.1773 | 3.78 | 4.57 | 5.38 | 6.12
x1 = 0.2273 | 3.47 | 4.3 | 5.16 | 6.01
x1 = 0.2401 | 3.43 | 4.26 | 5.13 | 5.94
x1 = 0.2966 | 3.14 | 3.99 | 4.81 | 5.59
x1 = 0.3803 | 2.37 | 3.05 | 3.72 | 4.51
x1 = 0.4277 | 2.07 | 2.71 | 3.39 | 4.08
x1 = 0.4808 | 1.75 | 2.29 | 2.89 | 3.49
x1 = 0.5618 | 1.2 | 1.72 | 2.22 | 2.77
x1 = 0.6317 | 0.894 | 1.35 | 1.81 | 2.35
x1 = 0.698 | 0.74 | 1.07 | 1.45 | 1.89
x1 = 0.8355 | 0.406 | 0.647 | 0.966 | 1.39
x1 = 0.879 | 0.321 | 0.514 | 0.776 | 1.12
x1 = 0.9279 | 0.27 | 0.446 | 0.684 | 0.976
x1 = 1 | 0.181 | 0.321 | 0.519 | 0.785

CCCC[n+]1cccc(C)c1.F[B-](F)(F)F [1-butyl-3-methylpyridinium tetrafluoroborate] + CO
electrical conductivity [S/m]
Conditions | 293.15 K | 303.15 K | 313.15 K | 323.15 K
x1 = 0.0337 | 2.29 | 2.71 | 3.11 | 3.5
x1 = 0.0438 | 2.45 | 2.89 | 3.34 | 3.8
x1 = 0.0479 | 2.66 | 3.12 | 3.6 | 4.09
x1 = 0.0567 | 2.9 | 3.41 | 3.96 | 4.53
x1 = 0.0699 | 3.17 | 3.85 | 4.49 | 5.1
x1 = 0.1142 | 3.33 | 3.98 | 4.66 | 5.38
x1 = 0.1504 | 3.37 | 4.06 | 4.74 | 5.5
x1 = 0.1734 | 3.31 | 4.01 | 4.74 | 5.52
x1 = 0.2236 | 3.11 | 3.8 | 4.55 | 5.34
x1 = 0.2696 | 2.78 | 3.44 | 4.15 | 4.89
x1 = 0.3345 | 2.43 | 3.08 | 3.77 | 4.49
x1 = 0.378 | 2.19 | 2.8 | 3.45 | 4.11
x1 = 0.4258 | 1.76 | 2.31 | 2.95 | 3.59
x1 = 0.5198 | 1.3 | 1.82 | 2.3 | 2.87
x1 = 0.61 | 0.944 | 1.32 | 1.78 | 2.27
x1 = 0.729 | 0.472 | 0.686 | 1.04 | 1.58
x1 = 0.8344 | 0.28 | 0.413 | 0.672 | 1.05
x1 = 0.9177 | 0.191 | 0.311 | 0.523 | 0.817
x1 = 1 | 0.155 | 0.281 | 0.461 | 0.704

CCCC[n+]1ccccc1.F[B-](F)(F)F [1-butylpyridinium tetrafluoroborate] + CCO
electrical conductivity [S/m]
Conditions | 303.15 K | 313.15 K | 323.15 K
x1 = 0.0353 | 0.785 | 1.02 | 1.32
x1 = 0.0417 | 0.863 | 1.18 | 1.38
x1 = 0.0455 | 1.06 | 1.27 | 1.54
x1 = 0.0461 | 1.04 | 1.29 | 1.54
x1 = 0.0551 | 1.15 | 1.48 | 1.72
x1 = 0.0564 | 1.24 | 1.5 | 1.83
x1 = 0.0634 | 1.44 | 1.64 | 2.22
x1 = 0.0735 | 1.43 | 1.82 | 2.12
x1 = 0.084 | 1.56 | 1.98 | 2.31
x1 = 0.1033 | 1.68 | 2.24 | 2.56
x1 = 0.1165 | 1.8 | 2.39 | 2.7
x1 = 0.1291 | 1.86 | 2.51 | 2.92
x1 = 0.1597 | 2.16 | 2.74 | 3.01
x1 = 0.1656 | 2.28 | 2.77 | 3.23
x1 = 0.2093 | 2.38 | 2.95 | 3.41
x1 = 0.2237 | 2.44 | 2.96 | 3.43
x1 = 0.2751 | 2.46 | 2.97 | 3.45
x1 = 0.3929 | 2.17 | 2.7 | 3.2
x1 = 0.4464 | 1.96 | 2.5 | 2.86
x1 = 0.5095 | 1.66 | 2.2 | 2.56
x1 = 0.617 | 1.2 | 1.77 | 2.17
x1 = 0.7008 | 0.884 | 1.43 | 1.71
x1 = 0.8158 | 0.566 | 1.03 | 1.28
x1 = 0.8973 | 0.436 | 0.821 | 1.04
x1 = 1 | 0.321 | 0.519 | 0.785
